Results taken from ChEMBL document CHEMBL2016457, “Discovery of potent and orally bioavailable 17β-hydroxysteroid dehydrogenase type 3 inhibitors” (Bioorg Med Chem, 2012).
Active and inactive are the calls of the source.

Tests used:
[1] = biological target: T1, Androgen receptor (Homo sapiens) (UniProt P10275); experiment: Agonist activity at human androgen receptor expressed in human HeLa cells assessed as DHT-induced response after 40 hrs by luciferase/beta-galactosidase-based reporter gene assay; assay type: functional, cell-based
T1 sequence (whole entry): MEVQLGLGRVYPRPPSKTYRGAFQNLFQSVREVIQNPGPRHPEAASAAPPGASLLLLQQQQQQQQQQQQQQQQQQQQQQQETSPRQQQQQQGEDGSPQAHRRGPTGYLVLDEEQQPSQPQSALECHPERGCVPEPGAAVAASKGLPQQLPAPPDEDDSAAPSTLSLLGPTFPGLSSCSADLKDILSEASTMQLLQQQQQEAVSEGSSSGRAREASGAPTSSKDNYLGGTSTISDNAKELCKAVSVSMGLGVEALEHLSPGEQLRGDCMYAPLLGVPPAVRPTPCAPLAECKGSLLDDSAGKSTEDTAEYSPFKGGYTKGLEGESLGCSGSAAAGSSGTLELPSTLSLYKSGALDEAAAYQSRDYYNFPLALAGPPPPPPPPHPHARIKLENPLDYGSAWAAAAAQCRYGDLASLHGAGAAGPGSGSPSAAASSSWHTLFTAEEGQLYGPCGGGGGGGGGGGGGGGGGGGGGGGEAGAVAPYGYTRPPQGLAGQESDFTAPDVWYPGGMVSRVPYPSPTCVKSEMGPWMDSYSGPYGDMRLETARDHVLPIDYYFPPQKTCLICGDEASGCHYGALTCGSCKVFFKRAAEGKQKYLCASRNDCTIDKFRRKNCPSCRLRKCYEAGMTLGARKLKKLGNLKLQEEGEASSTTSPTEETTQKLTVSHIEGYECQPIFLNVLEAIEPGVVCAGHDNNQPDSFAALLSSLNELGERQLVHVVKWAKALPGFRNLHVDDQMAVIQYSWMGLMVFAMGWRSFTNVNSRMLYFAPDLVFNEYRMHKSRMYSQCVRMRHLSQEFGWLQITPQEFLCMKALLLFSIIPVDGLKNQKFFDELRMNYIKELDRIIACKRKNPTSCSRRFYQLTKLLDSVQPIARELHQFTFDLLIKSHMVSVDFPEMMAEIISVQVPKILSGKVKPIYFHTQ

[2] = biological target: T2, 17-beta-hydroxysteroid dehydrogenase type 2 (Homo sapiens) (UniProt P37059); experiment: Inhibition of human recombinant 17-beta-HSD2 expressed in human HeLa cells using estradiol as substrate preincubated for 30 mins prior substrate addition measured after 120 mins by spectrophotometry; assay type: cell-based
T2 sequence (whole entry): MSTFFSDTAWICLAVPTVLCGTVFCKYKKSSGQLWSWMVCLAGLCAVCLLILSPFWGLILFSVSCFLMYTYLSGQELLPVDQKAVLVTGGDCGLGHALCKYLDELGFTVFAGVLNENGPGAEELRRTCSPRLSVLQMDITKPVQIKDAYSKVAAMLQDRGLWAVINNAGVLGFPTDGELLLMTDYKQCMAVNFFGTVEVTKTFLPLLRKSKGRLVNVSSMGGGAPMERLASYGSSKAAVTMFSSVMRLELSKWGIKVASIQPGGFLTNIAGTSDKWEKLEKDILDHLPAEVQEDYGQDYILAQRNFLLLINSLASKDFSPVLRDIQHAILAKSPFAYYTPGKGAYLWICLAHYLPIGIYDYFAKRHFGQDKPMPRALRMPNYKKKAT

[3] = biological target: T3, Glucocorticoid receptor (Homo sapiens) (UniProt P04150); experiment: Antagonist activity at human GR receptor expressed in human HeLa cells assessed as inhibition of DHT-induced response after 40 hrs by luciferase/beta-galactosidase-based reporter gene assay; assay type: functional, cell-based
T3 sequence (whole entry): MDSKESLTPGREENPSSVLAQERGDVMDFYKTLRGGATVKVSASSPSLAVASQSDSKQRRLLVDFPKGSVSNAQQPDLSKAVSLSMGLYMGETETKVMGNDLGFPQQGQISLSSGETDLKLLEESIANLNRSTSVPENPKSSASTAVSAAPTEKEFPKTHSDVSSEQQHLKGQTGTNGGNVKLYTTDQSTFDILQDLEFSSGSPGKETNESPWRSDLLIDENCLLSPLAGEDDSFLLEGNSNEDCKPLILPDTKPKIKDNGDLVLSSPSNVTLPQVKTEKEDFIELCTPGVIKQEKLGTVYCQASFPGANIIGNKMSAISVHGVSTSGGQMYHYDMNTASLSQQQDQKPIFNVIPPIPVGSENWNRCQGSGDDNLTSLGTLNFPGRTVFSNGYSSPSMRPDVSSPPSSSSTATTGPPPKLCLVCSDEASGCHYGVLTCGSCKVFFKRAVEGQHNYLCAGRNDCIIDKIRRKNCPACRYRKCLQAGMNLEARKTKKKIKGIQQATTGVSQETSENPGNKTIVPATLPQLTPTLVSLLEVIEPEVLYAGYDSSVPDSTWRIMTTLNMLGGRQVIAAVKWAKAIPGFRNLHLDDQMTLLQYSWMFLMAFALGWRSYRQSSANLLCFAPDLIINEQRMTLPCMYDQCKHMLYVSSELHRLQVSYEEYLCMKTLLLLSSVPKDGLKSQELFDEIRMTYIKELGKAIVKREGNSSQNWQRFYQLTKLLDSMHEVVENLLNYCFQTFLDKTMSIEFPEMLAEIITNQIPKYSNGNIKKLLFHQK

[4] = biological target: T4, Estrogen receptor (Homo sapiens) (UniProt P03372); experiment: Antagonist activity at human ERalpha receptor expressed in human HeLa cells assessed as inhibition of DHT-induced response after 40 hrs by luciferase/beta-galactosidase-based reporter gene assay; assay type: functional, cell-based
T4 sequence (whole entry): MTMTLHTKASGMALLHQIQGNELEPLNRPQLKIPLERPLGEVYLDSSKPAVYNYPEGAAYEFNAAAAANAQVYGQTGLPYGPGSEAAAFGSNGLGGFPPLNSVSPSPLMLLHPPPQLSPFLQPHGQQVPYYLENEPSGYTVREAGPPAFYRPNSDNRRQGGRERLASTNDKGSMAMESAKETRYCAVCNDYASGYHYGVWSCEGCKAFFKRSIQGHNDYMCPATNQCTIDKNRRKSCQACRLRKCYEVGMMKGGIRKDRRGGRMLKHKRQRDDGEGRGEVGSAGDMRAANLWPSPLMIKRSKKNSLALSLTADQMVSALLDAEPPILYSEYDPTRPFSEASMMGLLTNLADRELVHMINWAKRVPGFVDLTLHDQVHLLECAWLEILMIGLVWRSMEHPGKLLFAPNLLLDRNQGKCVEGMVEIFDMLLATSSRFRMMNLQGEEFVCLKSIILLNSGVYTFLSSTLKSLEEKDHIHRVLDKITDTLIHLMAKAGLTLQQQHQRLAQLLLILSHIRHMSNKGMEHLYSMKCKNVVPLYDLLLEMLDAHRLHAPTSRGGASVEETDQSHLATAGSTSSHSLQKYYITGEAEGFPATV

[5] = biological target: T5, 17-beta-hydroxysteroid dehydrogenase type 3 (Homo sapiens, UniProt P37058); settings: hela
T5 sequence (P37058 whole entry): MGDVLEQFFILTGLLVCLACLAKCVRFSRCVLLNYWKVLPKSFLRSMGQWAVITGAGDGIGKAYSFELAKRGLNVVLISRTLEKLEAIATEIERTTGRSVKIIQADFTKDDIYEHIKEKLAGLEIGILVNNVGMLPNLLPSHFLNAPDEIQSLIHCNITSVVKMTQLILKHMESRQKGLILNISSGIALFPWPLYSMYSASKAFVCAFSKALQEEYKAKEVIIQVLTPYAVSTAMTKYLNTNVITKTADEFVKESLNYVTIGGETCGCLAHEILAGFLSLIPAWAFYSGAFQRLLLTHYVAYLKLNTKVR
Description: (§1) Inhibition of human recombinant 17-beta-HSD3 expressed in human HeLa cells using androstenedione as substrate preincubated for 30 mins prior substrate addition measured after 120 mins by spectrophotometry

[6] = biological target: T6, 17-beta-hydroxysteroid dehydrogenase type 1 (Homo sapiens) (UniProt P14061); experiment: Inhibition of human recombinant 17-beta-HSD1 expressed in human HeLa cells using estrone as substrate preincubated for 30 mins prior substrate addition measured after 120 mins by spectrophotometry; assay type: cell-based
T6 sequence (whole entry): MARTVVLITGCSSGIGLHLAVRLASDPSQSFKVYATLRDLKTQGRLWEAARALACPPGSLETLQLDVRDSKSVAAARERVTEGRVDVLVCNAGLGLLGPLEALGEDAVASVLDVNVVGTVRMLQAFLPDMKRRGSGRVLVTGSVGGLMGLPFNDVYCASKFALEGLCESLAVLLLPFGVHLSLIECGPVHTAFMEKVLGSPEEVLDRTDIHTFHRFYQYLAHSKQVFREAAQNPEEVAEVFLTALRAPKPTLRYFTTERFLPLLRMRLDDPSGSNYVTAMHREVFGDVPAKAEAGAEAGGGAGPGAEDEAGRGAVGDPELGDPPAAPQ

[7] = biological target: T1, Androgen receptor (Homo sapiens); experiment: Antagonist activity at human androgen receptor expressed in human HeLa cells assessed as inhibition of DHT-induced response after 40 hrs by luciferase/beta-galactosidase-based reporter gene assay; assay type: functional, cell-based
[8] = biological target: T4, Estrogen receptor (Homo sapiens); experiment: Agonist activity at human Estrogen receptor ERalpha expressed in human HeLa cells assessed as DHT-induced response after 40 hrs by luciferase/beta-galactosidase-based reporter gene assay; assay type: functional, cell-based
[9] = biological target: T3, Glucocorticoid receptor (Homo sapiens); experiment: Agonist activity at human Glucocorticoid receptor expressed in human HeLa cells assessed as DHT-induced response after 40 hrs by luciferase/beta-galactosidase-based reporter gene assay; assay type: functional, cell-based
Rattus norvegicus = experiment: Inhibition of LH-RH agonist leuprorelin-induced testosterone steroidogenesis in Sprague-Dawley rat at 20 mg/kg, po administered 1 hr prior leuprorelin-induction measured up to 240 mins by GC/MS analysis; assay type: functional, organism-based; parameters: dose 20 mg/kg
[10] = biological target: T5, 17-beta-hydroxysteroid dehydrogenase type 3
Description: as §1

Activity [1]	inhibition [2]	Activity [3]	Activity [4]	IC50 [5]	inhibition [6]	Activity [7]	Activity [8]	Activity [9]	IC50 [10]	Compound	inhibition (Rattus norvegicus)
inactive	inactive	inactive	inactive	Not Active	inactive	inactive	inactive	inactive		COc1ccc(N2C(=O)O/C(=C\c3ccc(O)c(C#N)c3)C2=O)cc1	
inactive	inactive	inactive	inactive	Not Active	inactive	inactive	inactive	inactive		COc1ccc(N2C(=O)O/C(=C\c3ccc(O)c(C(=O)O)c3)C2=O)cc1	
inactive	inactive	inactive	inactive	Not Active	inactive	inactive	inactive	inactive		O=C(O)c1ccc(N2C(=O)O/C(=C\c3ccc(O)c(Br)c3)C2=O)cc1	
inactive	inactive	inactive	inactive	Not Active	inactive	inactive	inactive	inactive		NS(=O)(=O)c1ccc(N2C(=O)O/C(=C\c3ccc(O)c(Br)c3)C2=O)cc1	
inactive	inactive	inactive	inactive	Not Active	inactive	inactive	inactive	inactive		COc1ccc(N2C(=O)/C(=C(/c3ccc(O)c(Br)c3)C(F)(F)F)SC2=S)cc1	
inactive	inactive	inactive	inactive	Not Active	inactive	inactive	inactive	inactive		COc1ccc(N2C(=O)O/C(=C\c3ccc(O)c(CN(C)C)c3)C2=O)cc1	

The next lines start with the molecule.

Compound	Activity [1]	inhibition [2]	Activity [3]	Activity [4]	IC50 [5]	inhibition [6]	Activity [7]	Activity [8]	Activity [9]	IC50 [10]	inhibition (Rattus norvegicus)
CC(=O)O[C@H]1CC[C@@]2(C)C(=CC[C@@H]3[C@@H]2CC[C@]2(C)C(c4cccnc4)=CC[C@@H]32)C1											Active
O=C1NC(=S)S/C1=C\c1ccc(O)c(Br)c1	inactive	inactive	inactive	inactive	Not Active	inactive	inactive	inactive	inactive		
CN1CCC(N2C(=O)/C(=C/c3ccc(O)c(Br)c3)SC2=S)CC1	inactive	inactive	inactive	inactive	Not Active	inactive	inactive	inactive	inactive		
COc1ccc(N2C(=O)O/C(=C\c3cc(Cl)c(O)c(Cl)c3)C2=O)cc1	inactive	inactive	inactive	inactive	Not Active	inactive	inactive	inactive	inactive		
O=C(Nc1ccc(N2C(=O)O/C(=C\c3ccc(O)c(Br)c3)C2=O)cc1)C1CCCCC1	inactive	inactive	inactive	inactive		inactive	inactive	inactive	inactive	0.021 µM	
